Results as given in US20050124683A1, “HIV protease inhibitors, compositions containing the same, their pharmaceutical uses and materials for their synthesis” (priority 2003, published 2005).
Read-outs that look alike come from different tables or passages of the source.

Experiments:
HIV-1 protease = target: T1, HIV-1 protease (Human immunodeficiency virus type 1 group M subtype B, UniProt P04585, Q495S); test: HIV-1 Protease RET assay (Ki, resonance energy transfer); assay type: biochemical; conditions: Q7S mutant HIV-1 protease
T1 construct: made in house
Description: Ki's for the inhibitors of HIV-1 protease were determined using a resonance energy transfer (RET) assay. […] This enzyme is first partially purified as inclusion bodies from cell lysate. It is then solublized in 8M urea and passed through a Q-Sepharose column (Pharmacia) for further purification. To refold this protein, samples containing Q7S is dialyzed into 50 mM sodium phosphate pH 7.0, 50 mM NaCl, 10 mM DTT, and 10% glycerol.
The commercially available peptide substrate (Molecular Probes Cat. # H-2930) RE(EDANS)SQNYPIVQK(DABCYL)R is used to assess activity and Ki's. This peptide is cleaved quantitatively by HIV-1 Pr at the Tyr-Pro bond. The EDANS fluorophore absorbs at 340 nm and emits at 490 nm. The reaction is carried out in a 96 well plate in a total volume of 100 µL and is run for 12 minutes at 37C under steady-state conditions with 5 µM substrate and 2 nM active dimer enzyme concentration. The literature value Km for this substrate and enzyme is 103+/−8 μM (See Matayoshi, et al., “Novel Fluorogenic Substrates for Assaying Retroviral Proteases by Resonance Energy Transfer,” Science 247, 954 (1990)). The buffer for this reaction is 0.1M sodium acetate pH 4.8, 1M NaCl, 1 mM EDTA, 5 mM dithiothreitol, 10% dimethyl sulfoxide and 1 mg/ml bovine serum albumin. Inhibition curves are fit using the Morrison tight binding equation.

HIV-1 = test: Antiviral EC50 in HIV-infected T-cell lines (CPE inhibition / susceptibility assays); assay type: cell-based; conditions: Human immunodeficiency virus 1, T-cell
Description: T-cell lines, CEM-SS, and MT-2, and viruses HIV-1 RF and HIV-1 NL4-3 (pNL4-3) were obtained from the National Institutes of Health (AIDS Research and Reference Reagent Program, Bethesda, MD).
The ability of compounds to protect cells against HIV infection was measured by the […] dye reduction method, essentially as described (See Pauwels, R. Balzarini, J. Baba, M. Snoeck, R. Schols, D. Herdewijn, P. Desmyter, J. and De Clercq, E. 1988, “Rapid and automated tetrazolium-based colorimetric assay for the detection of anti-HIV compounds,”. J Virol. Methods., 20: 309-321 and Weislow, O. S. Kiser, R. Fine, D. L. Bader, J. Shoemaker, R. H. and Boyd, M. R. 1989. “New soluble-formazan assay for HIV-1 cytopathic effects: application to high-flux screening of synthetic and natural products for AIDS-antiviral activity”. J. Natl. Cancer Inst. 81:577-586). Subject cells were infected with test virus at an moi of 0.025 to 0.819 or mock infected with medium only and added at 2×10^4 cells per well into 96 well plates containing half-log dilutions of test compounds. Six days later, 50 μl of XTT (1 mg/ml XTT tetrazolium, […] phenazine methosulfate) was added to the wells and the plate was reincubated for four hours. Viability, as determined by the amount of XTT formazan produced, was quantified spectrophotometrically by absorbance at 450 nm. Data from CPE assays were expressed as the percent of formazan produced in compound-treated cells compared to formazan produced in wells of uninfected, compound-free cells. The fifty percent effective concentration (EC50) was calculated as the concentration of compound that effected an increase in the percentage of formazan production in infected, compound-treated cells to 50% of that produced by uninfected, compound-free cells. The 50% cytotoxicity concentration (CC50) was calculated as the concentration of compound that decreased the percentage of formazan produced in uninfected, compound-treated cells to 50% of that produced in uninfected, compound-free cells. The therapeutic index was calculated by dividing the cytotoxicity (CC50) by the antiviral activity (EC50).
Compounds were tested in phenotypic susceptibility assays at Virologic, Inc., (See Petropoulos C. J., Parkin N. T., Limoli K. L., Lie Y. S., Wrin T., Huang W., Tian H., Smith D., Winslow G. A., Capon D J, Whitcomb J M. 2000, “A novel phenotypic drug susceptibility assay for human immunodeficiency virus type 1,” Antimicrob Agents Chemother 44(4):920-928) or using the assay described here. MT-2 cells were infected with either HIV-1 NL4-3 or HIV-1 NL4-3(I84V/L90M) and incubated in the presence of serial 0.5 log dilutions of test compounds. Three days later, culture supernatants were collected and virus production, as determined by p24 ELISA, was assayed. Percent inhibition was calculated as p24 concentration in compound-treated samples as compared to infected, compound-free controls. Inhibition of viral replication is determined by measuring reduction in HIV p24 present in the culture supernatant, using a Beckman-Coulter p24 HIV-1 Ag EIA kit and following the supplied protocol. Absorbance is read on a MRX microplate reader (Dynex Technologies). The EC50 was calculated as the concentration of compound that effected a decrease in the p24 production by infected, compound-treated cells to 50% of that produced by infected, compound-free cells.

[1] = read-out: EC50 (wt) (nm), wt virus
[2] = read-out: Ave. EC50, average, unit inferred

Structure (SMILES)	Ki (HIV-1 protease; read-out: Ki (nm))	EC50 (HIV-1; [1])	Ki (HIV-1 protease; average, read-out: Ave. Ki)	EC50 (HIV-1; [2])
Cc1c(O)cccc1C(=O)N[C@@H](Cc1ccccc1)[C@H](O)C(=O)N1CC(F)(F)C(C)(C)[C@H]1C(=O)NCc1ccccc1F	< 0.1 nM	16 nM	–	–
C=CCNC(=O)[C@H]1N(C(=O)[C@@H](O)[C@H](Cc2ccccc2)NC(=O)c2cccc3c2CCN3)CC(F)(F)C1(C)C	< 0.1 nM	16 nM	–	–
CCCNC(=O)[C@H]1N(C(=O)[C@@H](O)[C@H](Cc2ccccc2)NC(=O)c2c(C)ccc(O)c2C)CC(F)(F)C1(C)C	< 0.1 nM	33 nM	–	–
Cc1c(O)cccc1C(=O)N[C@@H](Cc1cccc(F)c1)[C@H](O)C(=O)N1CC(F)(F)C(C)[C@H]1C(=O)NCC(F)(F)F (some centres unmarked)	< 0.1 nM	10 nM	–	–
Cc1ccc(O)c(C)c1C(=O)N[C@@H](Cc1ccccc1)[C@H](O)C(=O)N1CC(F)(F)C(C)(C)[C@H]1C(=O)NCC(C)C	< 0.1 nM	44 nM	–	–
CC[C@H](C)CNC(=O)[C@H]1N(C(=O)[C@@H](O)[C@H](Cc2ccccc2)NC(=O)c2cccc(O)c2C)CC(F)(F)C1(C)C [Example D18, (S)-4,4-Difluoro-1-[(2S,3S)-2-hydroxy-3-(3-hydroxy-2-methyl-benzoylamino)-4-phenyl-butyryl]-3,3-dimethyl-pyrrolidine-2-carboxylic acid ((2S)-2-methyl-butyl)-amide]	–	–	< 0.1 nM	10 nM
Cc1cc(O)c(C)c(C(=O)N[C@@H](Cc2cccc(F)c2)[C@H](O)C(=O)N2CC(F)(F)C(C)(C)C2C(=O)NCC(C)C)c1 (some centres unmarked)	< 0.1 nM	11 nM	–	–
COC[C@H](C)NC(=O)[C@H]1N(C(=O)[C@@H](O)[C@H](Cc2cccc(F)c2)NC(=O)c2cccc(O)c2C)CC(F)(F)C1(C)C	< 0.1 nM	100 nM	–	–
CC[C@@H](COC)NC(=O)[C@H]1N(C(=O)[C@@H](O)[C@H](Cc2ccccc2)NC(=O)c2cc(C)cc(O)c2C)CC(F)(F)C1(C)C	< 0.1 nM	30 nM	–	–
Cc1c(O)cccc1C(=O)N[C@@H](Cc1ccccc1)[C@H](O)C(=O)N1CC(F)(F)C(C)(C)[C@H]1C(=O)NCc1ccncc1	< 0.1 nM	130 nM	–	–
CCCNC(=O)[C@H]1N(C(=O)[C@@H](O)[C@H](Cc2cccc(F)c2)NC(=O)c2cc(C)cc(O)c2C)CC(F)(F)C1(C)C	< 0.1 nM	14 nM	–	–
C=CCNC(=O)[C@H]1N(C(=O)[C@@H](O)[C@H](Cc2ccccc2)NC(=O)c2cc(C)cc(O)c2C)CC(F)(F)C1(C)C [Example D13, (S)-4,4-Difluoro-1-[(2S,3S)-2-hydroxy-3-(3-hydroxy-2,5-dimethyl-benzoylamino)-4-phenyl-butyryl]-3,3-dimethyl-pyrrolidine-2-carboxylic acid allylamide]	–	–	< 0.1 nM	17 nM
Cc1c(O)cccc1C(=O)N[C@@H](Cc1cccc(F)c1)[C@H](O)C(=O)N1CC(F)(F)C(C)(C)[C@H]1C(=O)NCC(C)C [Example D11, (S)-4,4-Difluoro-1-[(2S,3S)-4-(3-fluoro-phenyl)-2-hydroxy-3-(3-hydroxy-2-methyl-benzoylamino)-butyryl]-3,3-dimethyl-pyrrolidine-2-carboxylic acid isobutyl-amide]	–	–	< 0.1 nM	13 nM
C=CCNC(=O)[C@H]1N(C(=O)[C@@H](O)[C@H](Cc2cccc(C(F)(F)F)c2)NC(=O)c2cccc(O)c2C)CC(F)(F)C1(C)C	< 0.1 nM	42 nM	–	–
Cc1ccccc1CNC(=O)[C@H]1N(C(=O)[C@@H](O)[C@H](Cc2ccccc2)NC(=O)c2cccc(O)c2C)CC(C)(O)C1(C)C (some centres unmarked)	< 0.1 nM	33 nM	–	–
Cc1ccccc1CNC(=O)[C@H]1N(C(=O)[C@@H](O)[C@H](Cc2cccc(F)c2)NC(=O)c2cccc(O)c2C)CC(F)(F)C1(C)C	< 0.1 nM	17 nM	–	–
Cc1cc(O)c(C)c(C(=O)N[C@@H](Cc2cccc(F)c2)[C@H](O)C(=O)N2CC(F)(F)C(C)(C)[C@H]2C(=O)NCC(F)(F)F)c1	< 0.1 nM	14 nM	–	–
Cc1c(O)cccc1C(=O)N[C@@H](Cc1ccccc1)[C@H](O)C(=O)N1CC(F)(F)C(C)(C)[C@H]1C(=O)NCC(C)(C)C	< 0.1 nM	4.7 nM	–	–
C=CCNC(=O)[C@H]1N(C(=O)[C@@H](O)[C@H](Cc2cccc(F)c2)NC(=O)c2cc(C)cc(O)c2C)CC(F)(F)C1(C)C	< 0.1 nM	25 nM	–	–
CCCNC(=O)C1N(C(=O)[C@@H](O)[C@H](Cc2ccccc2)NC(=O)c2cc(C)cc(O)c2C)CC(F)(F)C1(C)C (some centres unmarked)	< 0.1 nM	9 nM	–	–
COC1CN(C(=O)[C@@H](O)[C@H](Cc2ccccc2)NC(=O)c2cccc(O)c2C)[C@H](C(=O)NCc2ccccc2F)C1(C)C (some centres unmarked)	0.34 nM	1000 nM	–	–
Cc1cc(O)c(C)c(C(=O)N[C@@H](Cc2ccccc2)[C@H](O)C(=O)N2CC(F)(F)C(C)(C)[C@H]2C(=O)NCC(F)(F)F)c1 [Example D16, (S)-4,4-Difluoro-1-[(2S,3S)-2-hydroxy-3-(3-hydroxy-2,5-dimethyl-benzoylamino)-4-phenyl-butyryl]-3,3-dimethyl-pyrrolidine-2-carboxylic acid (2,2,2-trifluoro-ethyl)-amide]	–	–	< 0.1 nM	18 nM
CC(C)CNC(=O)[C@H]1N(C(=O)[C@@H](O)[C@H](Cc2ccccc2)NC(=O)c2cccc3c2CCN3)CC(F)(F)C1(C)C	< 0.1 nM	35 nM	–	–
C=CCNC(=O)[C@H]1N(C(=O)[C@@H](O)[C@H](Cc2cccc(F)c2)NC(=O)c2cccc3c2CCN3)CC(F)(F)C1(C)C	< 0.1 nM	35 nM	–	–
Cc1cc(O)c(C)c(C(=O)N[C@@H](Cc2ccccc2)[C@H](O)C(=O)N2CC(F)(F)C(C)(C)[C@H]2C(=O)NCC(F)(F)F)c1 [drawing 119]	< 0.1 nM	18 nM	–	–
